From patent publication US6872850B2, “Small molecule inhibitors of secretion of proteins encoded by ARE-mRNAs” (Message Pharmaceuticals, priority 2001, dated 2005)
Structures can show the parent of a compound that is named as a salt.

Tests used:
[1] = system: TNFα; test: ELISA of TNFα secreted into the media after LPS; assay type: cell-based; details: for effect on amount of secreted TNFα (direct TNFα secretion assay), in words: after LPS stimulation; for TNFα Secretion (% of DMSO control): 10 μM compound, 1 h, then LPS
Summary of the method: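 Candidate compounds were tested directly for their ability to lower the amount of TNFα that cells secrete. A standard ELISA quantified TNFα released into the culture media. Each compound's effect is given as a percentage of the TNFα secreted by control cells that received only DMSO vehicle.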

[2] = system: 3′ UTR of the TNFα gene; test: cell-based luciferase reporter assay, 5B cell line (luciferase gene with entire 3′ UTR of the TNFα gene); set-up: species or system mouse; details: for Luciferase 5B (% of DMSO control) / Luciferase 5B/3B (% of DMSO control 5B)/(% of DMSO control 3B): 10 μM compound; for Luciferase 5B (% of DMSO control): 1 h, then LPS, 5B cell line; for Luciferase 5B/3B (% of DMSO control 5B)/(% of DMSO control 3B): ratio of 5B to control 3B cell line
[3] = system: control cell line 3B (Raw 264.7, CMV-luciferase); test: luciferase reporter assay, control 3B cell line (luciferase without 3′ UTR of TNFα); assay type: cell-based, mouse
Experimental: The candidate compounds were tested in a high-throughput, cell-based luciferase reporter assay. For this assay, a commercially available mouse macrophage Raw 264.7 cell line was stably transfected with a construct containing the CMV promoter operably linked to the luciferase gene which was modified using standard molecular biology techniques to contain the entire 3′ UTR of the TNFα gene. This 3′ UTR is important for the stability and translation of TNFα in cells. To control for effects of candidate compounds that are not specific for TNFα, a control cell line, called “3B,” was generated by stably transfecting the 264.7 cell line with a commercially available construct containing the luciferase gene (without the addition of the heterologous 3′ UTR of the TNFα gene) under the regulation of the CMV promoter.
Both the 3B and 5B cell lines were incubated in the presence of 10 μM of a candidate compound for one hour. Then, lipopolysaccharide (LPS) was added to stimulate TNFα secretion. Luciferase activity was measured by determining the luminescence intensity due to the reaction of lucifern, ATP, Mg^2+, and molecular O2 (see, for example, Ausubel et al., supra). The luciferase activity in a cell incubated with a candidate compound was reported as a percentage of the luciferase activity for the corresponding cell incubated with DMSO vehicle only. […]

Compound	effect on amount of secreted TNFα (direct TNFα secretion assay), in words [1]	effect on luciferase activity in the 5B cell line (luciferase assay), in words [2]	effect on luciferase activity in the 3B control cell line, in words [3]	TNFα Secretion (% of DMSO control) [1]	Luciferase 5B (% of DMSO control) [2]	Luciferase 5B/3B (% of DMSO control 5B)/(% of DMSO control 3B) [2]
C/C(=N\NC(=N)N)c1ccc(C(=O)N[C@@H](Cc2ccccc2)C(=O)NCCNC(=O)[C@H](Cc2ccccc2)NC(=O)c2ccc(/C(C)=N/NC(=N)N)cc2)cc1 [MES 10094, (E,E)-Bisguanylhydrazone of 1-[(S)-N-(4-Acetylbenzoyl)-2-amino-3-phenylpro-panoyl]-4-[(S)-N-(4-acetylbenzoyl)-2-amino-3-phenylpropanoyl]-1,4-diaza-butane bis hydrochloride]	inhibited TNFα secretion	strongly inhibited	only weakly inhibited			
C/C(=N\NC(=N)N)c1cccc(C(=O)N[C@@H](CC(C)C)C(=O)N2CCN(C(=O)[C@H](Cc3ccccc3)NC(=O)c3ccc(OCc4ccccc4)cc3)CC2)c1 [MES 10307]				45 % of DMSO control	38 % of DMSO control	40 (% of DMSO control 5B)/(% of D
(1-Z,4-E)-Bisguanylhydrazone of 1-[(S)-N-(4-benzoylbenzoyl)-2-amino-3-phenylpropanoyl]-4-[(2S)-N-(3-acetylbenzoyl)-2-amino-4-methylpentanoyl]-piperazine bis trifluoroacetate [MES 10172]				60 % of DMSO control	38 % of DMSO control	49 (% of DMSO control 5B)/(% of DMSO control 3B)
(E,E)-Bisguanylhydrazone of 1-[(S)-N-(4-benzoylbenzoyl)-2-amino-3-phenylpropanoyl]-4-[(2S)-N-(3-acetylbenzoyl)-2-amino-4-methylpentanoyl]-1,4-piperazine bis trifluoroacetate [MES 10171]				57 % of DMSO control	20 % of DMSO control	24 (% of DMSO control 5B)/(% of DMSO control 3B)
(E,E)-Bisguanylhydrazone of 1-[(S)-N-(4-benzoylbenzoyl)-2-amino-3-phenylpropanoyl]-4-[(2S)-N-(4-benzoylbenzoyl)-2-amino-4-methylpentanoyl]-1,4-piperazine bis trifluoroacetate [MES 10164]	inhibited TNFα secretion	inhibited TNFα secretion		45 % of DMSO control	29 % of DMSO control	31 (% of DMSO control 5B)/(% of DMSO control 3B)
(Z,Z)-Bisguanylhydrazone of 1-[(S)-N-(4-benzoylbenzoyl)-2-amino-3-phenylpropanoyl]-4-[(2S)-N-(4-benzoylbenzoyl)-2-amino-4-methylpentanoyl]-1,4-piperazine bis trifluoroacetate [MES 10165]	inhibited TNFα secretion	inhibited TNFα secretion		36 % of DMSO control	37 % of DMSO control	63 (% of DMSO control 5B)/(% of DMSO control 3B)
